According to US10905680B2, “Methods of treatment for cholestatic and fibrotic diseases” (Genfit, priority 2016, dated 2021):

Columns and labels:
[1] = test system: Normal Human Dermal Fibroblasts (NHDF); assay: ACTA2 transcripts in TGFβ1-induced normal human dermal fibroblasts (RT-qPCR); assay type: cell-based; conditions: TGFβ1 10 ng/ml, 24 hours
Procedure: Serum-deprived normal human dermal fibroblasts (NHDF) were preincubated for 1 hour with NTZ (A) or TZ (B) before the activation with TGFβ1 (10 ng/ml). After 24 hours of incubation, the expression of ACTA2 was measured by RT-qPCR. The expression values were then transformed as fold induction over TGFβ1 control. Data are presented as mean (triplicates)±SEM (Standard Error of Mean). Statistical analyses were performed by a student's t-test (for TGFβ-stimulated vs unstimulated conditions); [#: p<0.05; ## p<0.01; ### p<0.001] or by aone-way ANOVA followed by Bonferroni post-hoc tests (for compound-treated samples vs TGFβ1 control). [*: p<0.05; **: p<0.01; ***: p<0.001], using GraphPad Prism 7.04 software.
Normal Human Dermal Fibroblasts (NHDF) (Lonza) were cultured in Fibroblast Basal Medium (FBM) (Lonza cat # CC-3131) supplemented with FGM-2 SingleQuots™ Kit (Lonza cat # CC-3132) and 2% FBS. […]
Quantitative PCR was then carried out using the MyiQ Single-Color Real-Time PCR Detection System (Biorad). […]
For each gene, the standard curves were drawn by selecting the best points (at least three points) in order to have PCR reaction efficiency close to 100% and a correlation coefficient close to 1. Expression levels were determined using the standard curve equation for both the housekeeping gene and the target gene (taking into account the specific PCR efficiency of each target gene).

[2] = test system: Human Intestinal Myofibroblasts (InMyoFib); assay: TGFβ1-induced expression of α-SMA protein in human intestinal fibroblasts (ELISA); assay type: cell-based; conditions: concentration of 1 μM; TGFβ1 3 ng/ml, 48 hours
Procedure: NTZ (A) or TZ (B) were added to serum-deprived intestinal fibroblasts (InMyoFib) 1 hour before the activation with TGFβ1 (3 ng/ml). After 48 hours of incubation, the expression of α-SMA was measured by ELISA. The obtained values were transformed into percentage inhibition over TGFβ1 control. Data are presented as mean (triplicates)±standard deviation (SD). Statistical analyses were performed by one-way ANOVA followed by Bonferroni post-hoc tests, using Sigma Plot 11.0 software. [*: p<0.05; **: p<0.01; ***: p<0.001 (comparison versus TGFβ1 3 ng/mL group)].
The Human Intestinal Myofibroblasts (InMyoFib) (Lonza) were cultured in Smooth Muscle Cell Basal Medium (SmBM-2™) (Lonza cat # CC-3181) that was supplemented with SmGM™-2 BulletKit™ (Lonza cat # CC-4149). The complete medium contains 5% fetal bovine serum. For the activation experiments with TGFβ1, the inMyoFib were plated at a density of 10×10^3 cells per well in 96-well plates. The next day, cell-culture medium was removed, and cells were washed with PBS (Invitrogen cat #14190). InMyoFib were deprived for 24 hours in serum-free, insulin-free and rhFGF-B-free medium. […]
The level of α-SMA was measured using a Sandwich ELISA. […]

Structure (SMILES): O=C(Nc1ncc([N+](=O)[O-])s1)c1ccccc1O [TZ, 2-hydroxy-N-(5-nitro-2-thiazolyl)benzamide]
- antifibrotic effects (ACTA2 transcripts) in TGFβ-activated normal human dermal fibroblasts [1]: significant and dose-dependent antifibrotic effects
- antifibrotic effects (α-SMA) in human Intestinal myofibroblasts [2]: significant antifibrotic effects
